Reference: patent publication US8492371B2, “Compounds as cannabinoid receptor ligands” (priority 2009, dated 2013)
Where two headings read alike, the source gives them in different places.

Legend:
[1] = acute thermal, persistent, inflammatory and neuropathic pain models; cited from earlier work
rat CB2 receptors = target: T1, rat CB2 receptors (Rattus norvegicus, UniProt Q9QZN9); test: Rat CB2 radioligand binding assay ([3H]CP-55,940 competition)
T1 construct: expressed in transfected cells; host or cells: HEK293
T1 sequence (Q9QZN9 1-360): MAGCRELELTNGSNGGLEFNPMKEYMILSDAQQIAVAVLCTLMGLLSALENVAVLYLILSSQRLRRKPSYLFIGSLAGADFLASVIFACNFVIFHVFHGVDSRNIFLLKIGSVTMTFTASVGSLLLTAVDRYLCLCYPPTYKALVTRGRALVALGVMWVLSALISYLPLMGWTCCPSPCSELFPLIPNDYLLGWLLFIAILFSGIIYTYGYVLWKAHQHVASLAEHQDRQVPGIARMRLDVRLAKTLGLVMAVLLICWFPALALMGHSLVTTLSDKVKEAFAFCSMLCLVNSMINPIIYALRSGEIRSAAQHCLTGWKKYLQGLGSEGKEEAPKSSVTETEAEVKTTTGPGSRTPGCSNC
Procedure, shortened: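 Membranes from HEK293 cells stably expressing rat CB2 (20 μg/well) incubated 45 min at 30 °C with 0.5 nM [3H]CP-55,940 and five competitor concentrations in Tris/EDTA/MgCl2 buffer with 0.5 mg/mL BSA, pH 7.4. Filtration and scintillation counting; nonspecific binding with 10 μM unlabeled CP-55,940.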

human CB2 receptors = target: T2, human CB2 receptors (Homo sapiens, UniProt P34972); test: Human CB2 radioligand binding assay ([3H]CP-55,940 competition)
T2 construct: expressed in transfected cells; host or cells: HEK293
Procedure, shortened: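 Membranes from HEK293 cells stably expressing human CB2 (5 μg/well) incubated 90 min at 30 °C with 0.5 nM [3H]CP-55,940 and five concentrations of displacer (0.01 nM–10 μM) in pH 7.4 Tris/EDTA/MgCl2 buffer with fatty acid free BSA. Bound radioactivity counted after filtration; nonspecific binding defined with 10 μM unlabeled CP-55,940.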

[2] = neuropathic, incisional, chronic and acute inflammatory pain; cited from earlier work
[3] = rat formalin model of persistent pain; cited from earlier work
microglial = settings: in vitro; blocked by SR144528; cited from earlier work
[4] = low doses, apolipoprotein E knockout mice; inhibited by SR144528; cited from earlier work
[5] = cited from earlier work

T2 sequence (P34972 whole entry): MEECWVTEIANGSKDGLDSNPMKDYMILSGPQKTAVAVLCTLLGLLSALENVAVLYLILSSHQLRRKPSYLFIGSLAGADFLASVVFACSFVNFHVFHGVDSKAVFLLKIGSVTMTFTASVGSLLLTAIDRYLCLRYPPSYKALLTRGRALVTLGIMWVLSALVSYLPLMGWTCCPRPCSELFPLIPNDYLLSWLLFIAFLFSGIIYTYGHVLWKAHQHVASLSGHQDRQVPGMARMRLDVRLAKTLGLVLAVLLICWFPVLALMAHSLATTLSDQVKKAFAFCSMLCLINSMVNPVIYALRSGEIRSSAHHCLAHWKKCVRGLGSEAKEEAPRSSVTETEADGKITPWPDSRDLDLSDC

Compound | Ki (rat CB2 receptors) | Ki (human CB2 receptors) | also measured
CN1CCCCC1Cn1cc(C(=O)c2cc([N+](=O)[O-])ccc2I)c2ccccc21 (centres unmarked) [AM-1241] | – | – | analgesic efficacy [1]: exhibits robust analgesic efficacy
Cn1c(C(C)(C)C)c/c(=N\C(=O)c2cc(C(F)(F)F)ccc2NC(=O)OC(C)(C)C)n1C[C@H]1CCCO1 [Example 120, tert-butyl 2-[({(3E)-5-tert-butyl-1-methyl-2-[(2R)-tetrahydrofuran-2-ylmethyl]-1,2-dihydro-3H-pyrazol-3-ylidene}amino)carbonyl]-4-(trifluoromethyl)phenylcarbamate] | 2.1 nM | 1.7 nM | –
CN(C)S(=O)(=O)Nc1ccc(C(F)(F)F)cc1C(=O)/N=c1\cc(C(C)(C)C)n(C)n1C[C@H]1CCCO1 [Example 121, N-{(3E)-5-tert-butyl-1-methyl-2-[(2R)-tetrahydrofuran-2-ylmethyl]-1,2-dihydro-3H-pyrazol-3-ylidene}-2-{[(dimethylamino)sulfonyl]amino}-5-(trifluoromethyl)benzamide] | 15 nM | 53 nM | –
C=Cc1ccc(C(F)(F)F)cc1C(=O)/N=c1\cc(C(C)(C)C)n(C)n1C[C@H]1CCCO1 [Example 122, N-{(3E)-5-tert-butyl-1-methyl-2-[(2R)-tetrahydrofuran-2-ylmethyl]-1,2-dihydro-3H-pyrazol-3-ylidene}-5-(trifluoromethyl)-2-vinylbenzamide] | 1.4 nM | 8.2 nM | –
CC(C)CS(=O)(=O)Nc1ccc(C(F)(F)F)cc1C(=O)/N=c1\cc(C(C)(C)C)n(C)n1C[C@H]1CCCO1 [Example 125, N-{(3E)-5-tert-butyl-1-methyl-2-[(2R)-tetrahydrofuran-2-ylmethyl]-1,2-dihydro-3H-pyrazol-3-ylidene}-2-[(isobutylsulfonyl)amino]-5-(trifluoromethyl)benzamide] | 25 nM | 32 nM | –
COC(=O)Cc1ccc(C(F)(F)F)cc1C(=O)/N=c1\cc(C(C)(C)C)n(C)n1C[C@H]1CCCO1 [Example 128, methyl [2-[({(3E)-5-tert-butyl-1-methyl-2-[(2R)-tetrahydrofuran-2-ylmethyl]-1,2-dihydro-3H-pyrazol-3-ylidene}amino)carbonyl]-4-(trifluoromethyl)phenyl]acetate] | 107 nM | 243 nM | –
Cn1c(C(C)(C)C)c/c(=N\C(=O)c2cc([N+](=O)[O-])ccc2F)n1C[C@H]1CCCO1 [Example 129, N-{(3E)-5-tert-butyl-1-methyl-2-[(2R)-tetrahydrofuran-2-ylmethyl]-1,2-dihydro-3H-pyrazol-3-ylidene}-2-fluoro-5-nitrobenzamide] | 2.3 nM | 8.6 nM | –
Cn1c(C(C)(C)C)c/c(=N\C(=O)c2cccc(C#N)c2)n1C[C@H]1CCCO1 [Example 130, N-{(3E)-5-tert-butyl-1-methyl-2-[(2R)-tetrahydrofuran-2-ylmethyl]-1,2-dihydro-3H-pyrazol-3-ylidene}-3-cyanobenzamide] | 17 nM | 72 nM | –
CCOC(=O)CCc1ccc(C(F)(F)F)cc1C(=O)/N=c1\cc(C(C)(C)C)n(C)n1C[C@H]1CCCO1 [Example 131, ethyl 3-[2-[({(3E)-5-tert-butyl-1-methyl-2-[(2R)-tetrahydrofuran-2-ylmethyl]-1,2-dihydro-3H-pyrazol-3-ylidene}amino)carbonyl]-4-(trifluoromethyl)phenyl]propanoate] | 18 nM | 23 nM | –
Cn1c(C(C)(C)C)c/c(=N\C(=O)c2cc(Br)ccc2F)n1C[C@H]1CCCO1 [Example 132, 5-bromo-N-{(3E)-5-tert-butyl-1-methyl-2-[(2R)-tetrahydrofuran-2-ylmethyl]-1,2-dihydro-3H-pyrazol-3-ylidene}-2-fluorobenzamide] | 7.1 nM | 15 nM | –
Cn1c(C(C)(C)C)c/c(=N\C(=O)c2cc(C(F)(F)F)ccc2Oc2ccccc2)n1C[C@H]1CCCO1 [Example 133, N-{(3E)-5-tert-butyl-1-methyl-2-[(2R)-tetrahydrofuran-2-ylmethyl]-1,2-dihydro-3H-pyrazol-3-ylidene}-2-phenoxy-5-(trifluoromethyl)benzamide] | 39 nM | 107 nM | –
COc1ccc2c(c1)c(CCN1CCOCC1)c(C)n2C(=O)c1cccc(Cl)c1Cl [GW405833] | – | – | efficacy in pain models [2]: is efficacious
CCCCCCC(C)(C)c1cc(OC)c([C@@H]2C=C(CO)[C@@H]3C[C@H]2C3(C)C)c(OC)c1 [HU-308] | – | – | antinociceptive response [3]: elicits an antinociceptive response
CCCC(C)(C)c1ccc2c(c1)OC(C)(C)[C@@H]1CC=C(C)C[C@@H]21 [JWH-133] | – | – | effect on β-amyloid-induced microglial activation and neurotoxicity (microglial): abrogated β-amyloid-induced microglial activation and neurotoxicity
(−)-Δ^9-Tetrahydrocannabinol [THC] | – | – | progression of atherosclerotic lesions [4]: slowed the progression of atherosclerotic lesions
N-({[(2Z)-5-tert-butyl-3-[(2R)-tetrahydrofuran-2-ylmethyl]-1,3,4-thiadiazol-2(3 H)-ylidene]amino}carbonyl)-L-phenylalaninamide [Example 80] | – | – | Ki (rat CB2 receptors; HEK293 membranes, 0.5 nM [3H]CP-55,940, read-out: rat CB2 Ki): 38 nM; Ki (human CB2 receptors; HEK293 membranes, 0.5 nM [3H]CP-55,940, read-out: human CB2 Ki): 28 nM
SR144528 | – | – | ovariectomy-induced bone loss ([5]; mice, model for post-menopausal osteoporosis): reverse ovariectomy-induced bone loss; osteoclast activity ([5]; mouse, in vivo): inhibit osteoclast activity
